Results from US20240059685A1, “PIEZO1 AGONISTS FOR THE PROMOTION OF BONE FORMATION” (BIOVENTURES, LLC, priority 2019, published 2024).
Entries after “also recorded” stand apart in the source; their conditions may differ.

Key:
Piezo1 = target: T1, Piezo1 (Mus musculus, UniProt E2JF22); test: qPCR gene expression of Wnt1, Ptgs2 and Tnfrsf11b in MLO-Y4 cells; assay type: cell-based, murine; settings: 10 μM, 2 hours
T1 construct: To identify Piezo1 stimulators, we treated MLO-Y4 cells with compounds; endogenous in cells; host or cells: MLO-Y4 (murine osteocyte-like cell line); control sh-Luc cells, with sh-Piezo1 knock-down cells as the specificity control
Procedure: Cell cultures. MLO-Y4 cells were cultured in α-MEM supplemented with 5% FBS, 5% BCS, and 1% penicillin/streptomycin/glutamine. Fifteen dynes/cm^2 oscillatory fluid shear stress was applied on MLO-Y4 cells at 1 Hz for 2 hours using an IBDI pump system (IBIDI, German). For Yoda1 treatment, cells were cultured in the presence of 10 μM Yoda1 (Sigma, St. Louis, MO) or DMSO for 2 hours. Immediately after the treatments, we isolated RNA from cells using RNeasy mini kit (Qiagen, German) for qPCR or RNA-seq analysis. To silence Piezo1, we generated Piezo1 shRNA expression plasmid using the following oligonucleotides in the pLKO.1-TRC cloning vector (Addgene Plasmid #10878, a gift from David Root): forward oligo: 5′-CCGGTC-[…]-3′ (SEQ ID NO: 1); reverse oligo: 5′-[…]-CGA-3′ (SEQ ID NO: 2) (Zhang et al., 2017). Yap1 shRNA (TRCN0000238432) and Taz shRNA (TRCN0000095951) were purchased from Sigma (St. Louis, MO). A shRNA against firefly luciferase was used as a control (Sigma, St. Louis, MO). For virus production, HEK293T cells were cultured in a 6-well culture plate and co-transfected with a total 3 μg of lentiviral shRNA vector, pMD2G (Addgene plasmid #12259, a gift from Didier Trono), and psPAX2 (Addgene plasmid #12260, a gift from Didier Trono) at the ratio of 2:0.9:0.4 using TransIT-LT1 transfection reagent (Mirus, Madison, WI). Culture media was changed 12 hours after transfection and viral supernatants were collected 48 hours after media change. Viral supernatants were filtered through a 0.45 μm filter and used immediately to transduce cells cultured in a 10 cm dish. Cells were then subjected to selection with G418 (100 μg/ml) or puromycin (25 μg/ml) for 5 days before treatment. To overexpress Piezo1 in MLO-Y4 cells, we transfected mPiezo1-IRES-eGFP (Addgene plasmid #80925, a gift from Ardem Patapoutian) into MLO-Y4 cells using TransIT-LT1 transfection reagent (Mirus, Madison, WI) and then treated these cells with 15 dynes/cm^2 oscillatory fluid shear stress at 1 Hz for 2 hours. Plasmids for expression of Cas9 and sgRNAs for knocking out Piezo1 in UAMS-32 cells were prepared by inserting oligonucleotides encoding the desired sgRNA sequence into the pX458 vector using the protocol recommended by the Zhang laboratory (Cong et al., 2013). Plasmids expressing Cas9 and Piezo1 sgRNAs were transfected into UAMS-32 cells using TransIT-LT1 transfection reagent (Mirus, Madison, WI). Cells were sorted into 96-well plates for single cell cloning 48 hours after transfection. Single cell colonies were then screened for homozygous deletion using the following primers: Forward: 5′-[…]-3′ (SEQ ID NO: 5), Reverse: 5′-[…]-3′ (SEQ ID NO: 6). All homozygous mutant cell colonies were then pooled together for further analysis. Cas9 transfected cells were used as a control. All in vitro cell culture experiments were performed three times with three technical replicates.
Quantitative PCR. Organs and whole bones were harvested from animals, removed of soft tissues, and stored immediately in liquid nitrogen. We prepared osteocyte-enriched bone by removing the ends of femurs and tibias and then flushing the bone marrow with PBS. We then scraped the bone surface with a scalpel and froze them in liquid nitrogen for later RNA isolation, or decalcified them for genomic DNA isolation. We isolated total RNA using TRIzol (Life technologies, NY), according to the manufacturer's instructions and prepared cDNA using High Capacity first strand cDNA synthesis kit (Life Technologies). We performed quantitative RT-PCR using the following Taqman assays from Applied Biosystems: Piezo1 (Mm01241549_m1); Piezo2 (Mm01265861_m1); Ptgs2 (Mm00478374_m1); Cyr61 (Mm00487498_m1); Wnt1 (Mm01300-555_g1); Yap1 (Mm011432-63_m1); Taz (Mm01289583_m1); Tnfsf11 Mm00441906_m1; Tnfrsf11b (Mm00435452_m1); Sost (Mm00470479_m1); and ribosomal protein S2 (Mrps2) (Mm00475529_m1). We calculated relative mRNA amounts using the ΔCt method (Livak and Schmittgen, 2001). […]

calvaria cells = test: Oxygen consumption rate and ATP production (seahorse) in wildtype and Piezo1 knockout calvaria cells; assay type: cell-based; settings: 10 μM, 1 hour; for changes in mitochondrial oxygen consumption rate in cells lacking Piezo1 / increases in ATP production in Piezo1 knockout cells: Piezo1 knockout calvaria cells
Procedure: To determine whether activation of Piezo1 by Yoda1 or YW-3-170 is associated with increased mitochondrial function, we measured oxygen consumption rate and ATP production in calvaria cells treated by Yoda1 or YW-3-170. Wildtype and Piezo1 knockout calvarial cells were cultured in α-MEM medium supplemented with 10% fetal bovine serum and treated with 10 μM Yoda1 or YW-3-170 for 1 hour. Oxygen consumption rate and ATP production were measured using seahorse. […] Importantly, these increases were diminished in Piezo1 knockout cells.

MLO-Y4 cells = test: ATP production in MLO-Y4 cells; assay type: cell-based, murine; settings: 30 minutes, different doses
[1] = Yap1/Taz knock-down MLO-Y4 cells

T1 sequence (E2JF22 whole entry): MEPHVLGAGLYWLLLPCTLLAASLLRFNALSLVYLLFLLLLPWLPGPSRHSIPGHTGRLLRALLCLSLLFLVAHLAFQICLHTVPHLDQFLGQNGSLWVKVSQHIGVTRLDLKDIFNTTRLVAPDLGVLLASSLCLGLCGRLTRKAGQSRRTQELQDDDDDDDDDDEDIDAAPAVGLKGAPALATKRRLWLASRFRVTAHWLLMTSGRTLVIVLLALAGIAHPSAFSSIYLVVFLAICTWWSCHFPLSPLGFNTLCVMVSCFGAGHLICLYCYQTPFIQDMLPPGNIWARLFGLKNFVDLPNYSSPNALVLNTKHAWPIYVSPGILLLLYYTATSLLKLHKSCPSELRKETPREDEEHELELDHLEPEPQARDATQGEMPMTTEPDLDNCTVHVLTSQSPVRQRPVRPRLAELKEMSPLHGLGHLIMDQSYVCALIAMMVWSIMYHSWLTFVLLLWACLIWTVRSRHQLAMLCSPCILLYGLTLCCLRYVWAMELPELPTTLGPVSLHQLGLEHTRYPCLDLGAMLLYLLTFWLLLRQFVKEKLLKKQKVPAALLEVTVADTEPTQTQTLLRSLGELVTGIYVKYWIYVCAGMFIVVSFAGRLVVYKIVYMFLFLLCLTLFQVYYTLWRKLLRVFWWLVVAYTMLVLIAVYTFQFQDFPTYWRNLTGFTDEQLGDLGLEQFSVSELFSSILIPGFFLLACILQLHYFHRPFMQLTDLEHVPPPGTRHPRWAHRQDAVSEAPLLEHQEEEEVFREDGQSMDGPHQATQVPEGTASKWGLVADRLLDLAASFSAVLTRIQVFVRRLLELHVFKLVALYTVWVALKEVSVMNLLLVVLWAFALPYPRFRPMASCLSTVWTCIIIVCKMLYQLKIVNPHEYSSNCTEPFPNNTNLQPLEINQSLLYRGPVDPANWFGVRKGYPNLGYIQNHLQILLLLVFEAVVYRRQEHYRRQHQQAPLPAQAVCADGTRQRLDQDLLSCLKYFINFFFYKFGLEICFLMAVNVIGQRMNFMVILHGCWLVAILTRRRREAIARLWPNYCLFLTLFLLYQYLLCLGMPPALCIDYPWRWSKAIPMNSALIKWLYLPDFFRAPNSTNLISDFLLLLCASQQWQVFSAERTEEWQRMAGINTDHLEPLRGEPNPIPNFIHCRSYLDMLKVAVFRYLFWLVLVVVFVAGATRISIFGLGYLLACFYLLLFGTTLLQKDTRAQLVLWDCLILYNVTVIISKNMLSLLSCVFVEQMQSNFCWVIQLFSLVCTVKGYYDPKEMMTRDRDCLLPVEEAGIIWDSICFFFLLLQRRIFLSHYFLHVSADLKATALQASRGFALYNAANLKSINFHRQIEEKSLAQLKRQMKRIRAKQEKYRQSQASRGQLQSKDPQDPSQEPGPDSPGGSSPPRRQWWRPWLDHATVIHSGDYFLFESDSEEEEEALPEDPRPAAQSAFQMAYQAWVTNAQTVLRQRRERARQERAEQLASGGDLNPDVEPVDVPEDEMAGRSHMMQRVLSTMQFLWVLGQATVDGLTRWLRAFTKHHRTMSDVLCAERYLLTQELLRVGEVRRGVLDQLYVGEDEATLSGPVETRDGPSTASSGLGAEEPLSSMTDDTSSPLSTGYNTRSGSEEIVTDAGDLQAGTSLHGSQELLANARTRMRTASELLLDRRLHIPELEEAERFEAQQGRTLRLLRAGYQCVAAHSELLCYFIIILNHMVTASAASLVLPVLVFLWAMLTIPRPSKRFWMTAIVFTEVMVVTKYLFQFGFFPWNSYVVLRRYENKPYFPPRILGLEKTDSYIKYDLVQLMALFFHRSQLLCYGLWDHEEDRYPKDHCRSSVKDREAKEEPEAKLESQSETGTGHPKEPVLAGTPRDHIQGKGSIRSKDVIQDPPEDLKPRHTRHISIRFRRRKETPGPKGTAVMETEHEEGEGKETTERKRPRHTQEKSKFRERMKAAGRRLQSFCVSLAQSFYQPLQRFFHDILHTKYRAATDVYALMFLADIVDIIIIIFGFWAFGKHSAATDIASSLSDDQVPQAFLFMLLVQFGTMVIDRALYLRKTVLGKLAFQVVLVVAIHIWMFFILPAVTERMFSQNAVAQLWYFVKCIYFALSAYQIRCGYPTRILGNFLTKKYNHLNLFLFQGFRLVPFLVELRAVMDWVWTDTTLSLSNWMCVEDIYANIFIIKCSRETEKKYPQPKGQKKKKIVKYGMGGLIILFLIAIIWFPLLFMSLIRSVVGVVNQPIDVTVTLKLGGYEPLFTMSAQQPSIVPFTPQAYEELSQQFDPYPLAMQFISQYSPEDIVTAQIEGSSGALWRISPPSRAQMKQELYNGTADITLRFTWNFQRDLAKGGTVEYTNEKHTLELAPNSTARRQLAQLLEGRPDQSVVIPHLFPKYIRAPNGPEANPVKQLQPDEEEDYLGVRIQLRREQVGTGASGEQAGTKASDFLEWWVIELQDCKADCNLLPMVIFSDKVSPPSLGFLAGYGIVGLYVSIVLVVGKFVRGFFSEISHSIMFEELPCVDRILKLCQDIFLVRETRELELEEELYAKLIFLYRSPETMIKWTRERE

changes in gene expression (Ptgs2, Wnt1, Tnfrsf11b) after silencing of Piezo1 (Piezo1; Piezo1 knock-down MLO-Y4 cells) | increase of Ptgs2 after silencing Yap1 and Taz (Piezo1; [1]) | increase of Tnfrsf11b after silencing Yap1 and Taz (Piezo1; [1]) | increase of Wnt1 after silencing Yap1 and Taz (Piezo1; [1]) | Compound | Ptgs2 expression compared with vehicle (Piezo1; MLO-Y4 cells) | Tnfrsf11b expression compared with vehicle (Piezo1; MLO-Y4 cells) | Wnt1 expression compared with vehicle (Piezo1; MLO-Y4 cells) | changes in mitochondrial oxygen consumption rate in cells lacking Piezo1 (calvaria cells) | increases in ATP production in Piezo1 knockout cells (calvaria cells) | ATP production (calvaria cells; wildtype calvaria cells) | mitochondrial oxygen consumption rate at basal level as well as stimulated level (calvaria cells; wildtype calvaria cells) | ATP production (MLO-Y4 cells) | Ptgs2 expression compared with positive control Yoda1 (Piezo1; MLO-Y4 cells) | Wnt1 expression compared with positive control Yoda1 (Piezo1; MLO-Y4 cells) | ATP production compared with Yoda1 (calvaria cells; wildtype calvaria cells) | mitochondrial oxygen consumption rate at basal level as well as stimulated level (calvaria cells; wildtype calvaria cells, listed as 170)
completely prevented | significantly blunted | significantly blunted | significantly blunted | Clc1cccc(Cl)c1CSc1nnc(-c2cnccn2)s1 [Yoda1] | stimulated expression; also recorded: higher Ptgs2 expression | stimulated expression; also recorded: higher Tnfrsf11b expression | stimulated expression; also recorded: higher Wnt1 expression | significantly blunted | diminished | stimulated; also recorded: increase | increase | increased ATP production in MLO-Y4 cells in a dose-dependent manner |  |  |  | 
 |  |  |  | Fc1ccc(Cl)c(CSc2nnc(-c3cnccn3)s2)c1Cl [YW-3-170] | higher Ptgs2 expression | higher Tnfrsf11b expression | higher Wnt1 expression | significantly blunted | diminished | increase | increased | increased ATP production in MLO-Y4 cells in a dose-dependent manner | higher Ptgs2 expression than the positive control | higher Wnt1 expression than the positive control | more ATP production than Yoda1 | increase
